How the values were obtained:
[1] = molecular target: T1, recombinant PRL-3 (Homo sapiens, UniProt O75365); assay: In vitro PTPase assay with recombinant PRL (peptide or DiFMUP substrate); type: biochemical
T1 construct: made in house; host or cells: E. coli DH5α
Experimental: In vitro PTPase activities were measured using the commercial protein tyrosine phosphatase assay kit (UBI) following established procedure. […] 100 μl of Malachite Green solution was added and incubated for 5 minutes, and the absorbance at 660 nm was measured after 5 minutes.
Recombinant GST fusion proteins of human PRL-1, 2 and 3 phosphatases were purified with glutathione beads from DH5α bacteria transformed by pGEX vectors containing cDNA fragments encoding the human PRLs which were generated by RT-PCR from H9 cells and confirmed by sequence analysis. Activities of the purified recombinant PRL proteins in dephosphorylating DiFMUP in the absence or presence of various inhibitors were measured following established procedure.
To assess whether sodium stibogluconate is an inhibitor of oncogenic PRL phosphatases, its effects on the PTPase activity of recombinant PRLs were evaluated by in vitro PTPase assays.

[2] = molecular target: T2, intracellular Flag-PRL-2 (Homo sapiens, UniProt Q12974); assay: PTPase activity of anti-Flag immunocomplexes from NIH3T3 transfectants; type: cell-based
T2 construct: expressed in transfected cells; host or cells: NIH3T3
T2 sequence (Q12974 1-167): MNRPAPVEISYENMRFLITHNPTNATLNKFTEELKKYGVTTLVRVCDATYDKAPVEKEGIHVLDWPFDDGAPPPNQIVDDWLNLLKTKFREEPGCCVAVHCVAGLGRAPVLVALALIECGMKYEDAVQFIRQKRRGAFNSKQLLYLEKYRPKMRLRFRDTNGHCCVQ
Experimental: An expression construct of Flag-tagged PRL-1 or control vector was transfected into NIH3T3 cells which were then treated without or with sodium stibogluconate and used for immunoprecipitation assays with a monoclonal anti-Flag antibody. The immunocomplexes were analyzed by SDS-PAGE/Western blotting and PTPase assays. A Flag-tagged protein with a molecular weight approximately 22 kDa as expected for Flag-PRL-1 was detected in the immunocomplexes from untreated or sodium stibogluconate -treated Flag-PRL-1 transfectants but not in those from the control cells (FIG. 6A).
Flag-PRL-2 transfectants were briefly treated with sodium stibogluconate for 5 minutes, washed to remove cell-free drug and then incubated for various times prior to termination by cell lysis. Anti-Flag immunocomplexes from the cells were analyzed by SDS-PAGE/Western blotting and PTPase assays. The amounts of Flag-PRL-2 proteins in the immunocomplexes were at similar levels as quantified by probing with an anti-Flag antibody. […] PTPase activity of the immunocomplexes from cells incubated for 24 hours was 78% of the untreated cells.
Glucatime-induced inactivation of intracellular PRL-2 lasts more than 24 hours. NIH3T3 stable transfectant of Flag-tagged PRL-2 was treated with glucatime for 5 minutes, washed to remove cell free drug and then incubated for various times prior to termination by lysing the cells in lysis buffer. Flag-tagged PRL-2 was immunoprecipitated from the cell lysates using a monoclonal anti-Flag antibody. The amounts of Flag-tagged PRL-2 in the immunocomplexes were quantified by SDS-PAGE/Western blotting with the anti-Flag antibody (A). Activities of the immunocomplexes in dephosphorylating a synthetic phosphotyrosine peptide were determined by in vitro PTPase assays (B).

[3] = molecular target: T3, intracellular Flag-PRL-2 in WM9 cells (Homo sapiens, UniProt Q12974); assay: PTPase activity of anti-Flag immunocomplexes from WM9 transfectants; type: cell-based; conditions: treated 5 minutes
T3 construct: expressed in transfected cells; host or cells: WM9 human melanoma cells
Experimental: FIG. 6C. Sodium stibogluconate inactivates intracellular PRL-2 in WM9 human melanoma cells. A. Relative PTPase activities of anti-Flag immunocomplexes from WM9 cells transfected with the control vector (V) or Flag-PRL-2 expression construct and then treated with different amounts of sodium stibogluconate for 5 minutes B. Relative amounts of Flag-PRL-2 in the immunocomplexes as determined by SDS-PAGE/Western blotting. C. Relative PTPase activities of anti-MKP1 immunocomplexes from WM9 cells treated with different amounts of sodium stibogluconate for 5 minutes. Relative amounts of MKP1 in the immunocomplexes as determined by SDS-PAGE/Western blotting.
Flag-PRL-2 protein was detected in anti-Flag immunocomplexes from WM9 cells tranfected with an expression construct of Flag-PRL-2 but not in those from vector transfectants expected.

[4] = test system: H9 cells (T-lymphoma); assay: Growth inhibition of human tumor cell lines; type: cell-based; conditions: SS 12.5 μg/ml, IFNα 1,000 u/ml, alone or combined
[5] = test system: MDA435 cells (Breast cancer); assay: Growth inhibition of human tumor cell lines; type: cell-based; conditions: SS 12.5 μg/ml, IFNα 1,000 u/ml, alone or combined
[6] = test system: RC45 cells (Renal cell carcinoma); assay: Growth inhibition of human tumor cell lines; type: cell-based; conditions: SS 12.5 μg/ml, IFNα 1,000 u/ml, alone or combined
[7] = test system: prostate cancer; conditions: cited from earlier work

T1 sequence (O75365 whole entry): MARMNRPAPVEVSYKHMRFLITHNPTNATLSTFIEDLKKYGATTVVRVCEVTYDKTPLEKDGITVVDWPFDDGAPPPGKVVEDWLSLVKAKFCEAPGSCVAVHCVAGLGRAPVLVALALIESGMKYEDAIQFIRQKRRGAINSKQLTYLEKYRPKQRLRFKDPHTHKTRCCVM

O.O.O.O.O.O.O.O.O.O=C([O-])[C@@H]1[O][Sb]2([O-])([O][Sb]34([OH])[O][C@H]([C@H](O)CO)[C@H]([O]3)[C@H](C(=O)[O-])[O]4)[O][C@H]([C@H](O)CO)[C@@H]1[O]2.[Na+].[Na+].[Na+] [sodium stibogluconate]
inhibition of PRL-3 after prolonged pre-incubation ([1]; pre-incubation 30 or 60 minutes, 10 mg/ml): nearly complete inactivation | reversibility of PRL-3 inactivation ([1]; washing process): not relieved | PTPase activity of Flag-PRL-2 immunocomplexes from treated transfectants ([2]; treated 5 min): lack of PTPase activity | duration of intracellular PRL-2 inactivation ([2]; treated 5 minutes, washed to remove cell free drug): at least 24 hours | PTPase activity of Flag-PRL-2 immunocomplexes from treated WM9 transfectants [3]: only low levels of PTPase activity

IFNα
% of growth inhibition by day 6 (±s.d.) [4]: 86 (3) % | % of growth inhibition by day 6 (±s.d.) [5]: 29 (15) % | % of growth inhibition by day 6 (±s.d.) [6]: 70 (15) % | patients in whom the cytokine is effective [7]: 5%

Source: patent US7744867B2, “PTPase inhibitors and method of using same” (The Cleveland Clinic Foundation, priority 2001, dated 2010)
